The text below walks through data of paper PMC6447767, “Simultaneous determination of the potent anti-tuberculosis regimen—Pyrazinamide, ethambutol, protionamide, clofazimine in beagle dog plasma using LC–MS/MS method coupled with 96-well format plate” (Journal of Pharmaceutical and Biomedical Analysis, 2019).

A short description of one data set: in vivo. The following applies: beagle, dog, po.
Data set [1] is described as follows: Stability of analytes in Beagle dog plasma (freeze-thaw, long-term, auto-sampler, bench-top). The conditions noted are these: for %Stability recoveries (Mean ± SD), Freeze-thaw (−80 °C) / %Stability recoveries (Mean ± SD), Bench-top 4 h (4 °C) / %Stability recoveries (Mean ± SD), Long-term 40 days (−80 °C) / Stability accuracy under the test conditions: Beagle dog plasma; for %Stability recoveries (Mean ± SD), Freeze-thaw (−80 °C): 3 freeze-thaw cycles; for %Stability recoveries (Mean ± SD), Freeze-thaw (−80 °C) / %Stability recoveries (Mean ± SD), Bench-top 4 h (4 °C) / %Stability recoveries (Mean ± SD), Long-term 40 days (−80 °C) / %Stability recoveries (Mean ± SD), Auto-sampler 27 h (18 °C): n = 3; for %Stability recoveries (Mean ± SD), Auto-sampler 27 h (18 °C): processed Beagle dog plasma samples; for Stability accuracy under the test conditions: summary over all stability conditions and QC levels.

The nature of data set [2]: Pharmacokinetic study of the PZA-EMB-PTO-CFZ combination after oral administration. The following applies: beagle, dog, plasma, in combination; for AUC: AUC0-τ, 0 to 24/48 h; for AUC / AUC(0-inf) / Cmax / half-life: n = 6; for AUC(0-inf): AUC0-∞; for Tmax: n = 6, mean ± S.D.
Data set [3] in a line: Solubility in organic solvents noted during sample preparation.
The conditions of data set [4]: beagle, dog.
The mark [5] stands for this setting: High Dose (double of standard dose).
[6] abbreviates: Low Dose (half of standard dose).
The mark [7] stands for this setting: T1/2, High Dose (double of standard dose).
Setting [8] is: T1/2, Low Dose (half of standard dose).
Where [9] appears, read: T1/2, Medium Dose (standard dose).
Setting [10] is: Medium Dose (standard: PZA 93.2, EMB 20.7, PTO 15.5, CFZ 5.2 mg/kg).

SMILES strings stand for the structures. Like-named read-outs stand apart in the source and are kept apart here.

In general, Tmax refers to the time from dosing to the highest level. In general, AUC refers to the area under the concentration-time curve, a measure of exposure. By AUC(0-inf) is commonly meant total exposure, with the tail of the curve extrapolated. As usually defined, the Cmax is the peak of the concentration-time curve. By half-life is commonly meant the time needed for the level to fall by half in the phase considered. For `CC(C)/N=c1\cc2n(-c3ccc(Cl)cc3)c3ccccc3nc-2cc1Nc1ccc(Cl)cc1` [CFZ, clofazimine], the Tmax in the data set “in vivo” was determined as 3.17 ± 0.98 h. For the same compound, in data set [1] (HQC), the “%Stability recoveries (Mean ± SD), Freeze-thaw (−80 °C)” value is listed as 102.8 ± 2.3%; the “%Stability recoveries (Mean ± SD), Bench-top 4 h (4 °C)” value came out at 96.1 ± 2.0%; the “%Stability recoveries (Mean ± SD), Long-term 40 days (−80 °C)” value is 98.5 ± 2.3%; the “%Stability recoveries (Mean ± SD), Auto-sampler 27 h (18 °C)” value is 103.3 ± 1.3%. In data set [1] (LQC), the “%Stability recoveries (Mean ± SD), Freeze-thaw (−80 °C)” value stood at 113.2 ± 3.8%; the “%Stability recoveries (Mean ± SD), Bench-top 4 h (4 °C)” value was found to be 92.5 ± 4.6%; the “%Stability recoveries (Mean ± SD), Long-term 40 days (−80 °C)” value is listed as 91.3 ± 1.0%; the “%Stability recoveries (Mean ± SD), Auto-sampler 27 h (18 °C)” value is on record as 95.3 ± 8.6%. For the same compound, the “Stability accuracy under the test conditions” value (from here on “Stability accuracy”) in data set [1] is recorded as 86.6–113.2%. Moreover, in data set [2] (setting [5]), the AUC amounted to 0.143 ± 0.0371 µg·h/mL, the AUC(0-inf) is 0.147 ± 0.0374 µg·h/mL and the Cmax stood at 21.6 ± 7.32 ng/mL. Also, in data set [2] (setting [6]), the AUC was 0.0175 ± 0.00967 µg·h/mL, the AUC(0-inf) was determined as 0.0238 ± 0.0118 µg·h/mL and the peak concentration (Cmax) worked out at 3.69 ± 1.32 ng/mL. Moreover, in data set [2] (Medium Dose (standard dose)), the AUC was found to be 0.0422 ± 0.0177 µg·h/mL, the AUC(0-inf) amounted to 0.0531 ± 0.0221 µg·h/mL and the Cmax was 7.24 ± 2.58 ng/mL. Also, the half-life in data set [2] (setting [7]) was 3.63 ± 1.49 h. In addition, the half-life in data set [2] (setting [8]) was 3.41 ± 1.31 h. Moreover, in data set [2] (setting [9]), the half-life is 4.03 ± 1.16 h.
On to `CC[C@@H](CO)NCCN[C@@H](CC)CO` [EMB, ethambutol], for which, in data set [3], the Solubility in acetonitrile entry is “poor solubility”. In data set [1] (HQC), the “%Stability recoveries (Mean ± SD), Freeze-thaw (−80 °C)” value is recorded as 98.0 ± 2.6%; the “%Stability recoveries (Mean ± SD), Bench-top 4 h (4 °C)” value amounted to 86.6 ± 0.9%; the “%Stability recoveries (Mean ± SD), Long-term 40 days (−80 °C)” value was 101.8 ± 0.9%; the “%Stability recoveries (Mean ± SD), Auto-sampler 27 h (18 °C)” value is 94.0 ± 5.0%. Besides, in data set [1] (LQC), the “%Stability recoveries (Mean ± SD), Freeze-thaw (−80 °C)” value came to 106.6 ± 6.2%; the “%Stability recoveries (Mean ± SD), Bench-top 4 h (4 °C)” value is given as 100.5 ± 4.8%; the “%Stability recoveries (Mean ± SD), Long-term 40 days (−80 °C)” value turned out to be 109.3 ± 4.7%; the “%Stability recoveries (Mean ± SD), Auto-sampler 27 h (18 °C)” value stood at 103.2 ± 3.6%. Further, the “Stability accuracy” value in data set [1] is recorded as 86.6–113.2%. In data set [2] (setting [5]), the AUC is 58.7 ± 14.8 µg·h/mL, the AUC(0-inf) amounted to 59.2 ± 15 µg·h/mL, the Cmax was determined as 21100 ± 4230 ng/mL and the Tmax turned out to be 0.92 ± 0.38 h. Besides, in data set [2] (setting [6]), the AUC was 7.88 ± 1.22 µg·h/mL, the AUC(0-inf) came out at 7.98 ± 1.23 µg·h/mL, the peak concentration (Cmax) stood at 2930 ± 890 ng/mL and the Tmax came out at 1.25 ± 0.94 h. In data set [2] (Medium Dose (standard dose)), the AUC worked out at 18.5 ± 2.35 µg·h/mL, the area under the curve AUC(0-inf) turned out to be 18.7 ± 2.34 µg·h/mL and the Cmax was 8720 ± 1150 ng/mL. Further, in data set [2] (setting [7]), the half-life is 12 ± 0.62 h. Further, the half-life in data set [2] (setting [8]) was 11.8 ± 1.31 h. In data set [2] (setting [9]), the half-life is 12.7 ± 1.88 h. In addition, the Tmax in data set [2] (setting [10]) was found to be 0.83 ± 0.2 h.
Consider `CCCc1cc(C(N)=S)ccn1` [PTO, protionamide], for which the “Stability accuracy” value in data set [4] is recorded as 86.6–113.2%.
Consider `NC(=O)c1cnccn1` [PZA, pyrazinamide], for which, in data set [1] (HQC), the “%Stability recoveries (Mean ± SD), Freeze-thaw (−80 °C)” value was found to be 98.6 ± 0.7%; the “%Stability recoveries (Mean ± SD), Bench-top 4 h (4 °C)” value is 95.4 ± 2.5%; the “%Stability recoveries (Mean ± SD), Long-term 40 days (−80 °C)” value came out at 88.6 ± 0.9%; the “%Stability recoveries (Mean ± SD), Auto-sampler 27 h (18 °C)” value was found to be 102.5 ± 3.3%. In data set [1] (LQC), the “%Stability recoveries (Mean ± SD), Freeze-thaw (−80 °C)” value came out at 106.3 ± 3.0%; the “%Stability recoveries (Mean ± SD), Bench-top 4 h (4 °C)” value is 95.2 ± 3.4%; the “%Stability recoveries (Mean ± SD), Long-term 40 days (−80 °C)” value is given as 97.9 ± 2.0%; the “%Stability recoveries (Mean ± SD), Auto-sampler 27 h (18 °C)” value is reported as 101.1 ± 1.6%. Also, the “Stability accuracy” value in data set [1] is on record as 86.6–113.2%. Further, in data set [2] (setting [5]), the AUC was determined as 1970 ± 298 µg·h/mL, the area under the curve AUC(0-inf) worked out at 1970 ± 298 µg·h/mL, the Cmax is 241000 ± 19200 ng/mL and the Tmax was 1.33 ± 0.26 h. For the same compound, in data set [2] (setting [6]), the AUC was 50.2 ± 7.6 µg·h/mL, the AUC(0-inf) was 50.2 ± 7.6 µg·h/mL, the highest concentration (Cmax) was determined as 57000 ± 11900 ng/mL and the Tmax stood at 1.13 ± 0.54 h. Also, in data set [2] (Medium Dose (standard dose)), the AUC is 1080 ± 187 µg·h/mL, the AUC(0-inf) was determined as 1080 ± 188 µg·h/mL and the Cmax came out at 125000 ± 6700 ng/mL. The half-life in data set [2] (setting [7]) is 2.62 ± 0.1 h. Further, the half-life in data set [2] (setting [8]) is 2.82 ± 0.08 h. Besides, the half-life in data set [2] (setting [9]) is 2.7 ± 0.21 h. In data set [2] (setting [10]), the Tmax is 1.04 ± 0.6 h.
